Laboratory results as given in paper PMC10165273, “Itch receptor MRGPRX4 interacts with the receptor activity–modifying proteins” (The Journal of Biological Chemistry, 2023).
Where “and” joins values, the source holds several entries; their conditions need not be identical. Equal values may be shown once. Read-outs that look alike come from different tables or passages of the source.

Molecular target: T1, MRGPRX4 (Homo sapiens, UniProt Q96LA9)
T1 construct: expressed in transfected cells; host or cells: HEK293T
T1 sequence (Q96LA9 whole entry): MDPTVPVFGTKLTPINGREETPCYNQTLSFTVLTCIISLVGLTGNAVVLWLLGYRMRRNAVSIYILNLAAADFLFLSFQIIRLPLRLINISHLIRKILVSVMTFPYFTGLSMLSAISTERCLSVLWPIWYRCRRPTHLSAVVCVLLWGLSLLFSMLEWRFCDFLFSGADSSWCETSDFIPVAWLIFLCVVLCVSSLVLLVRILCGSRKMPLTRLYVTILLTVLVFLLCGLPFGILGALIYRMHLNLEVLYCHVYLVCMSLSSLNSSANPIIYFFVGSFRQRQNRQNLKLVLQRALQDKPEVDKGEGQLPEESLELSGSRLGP
Test: IP1 accumulation HTRF assay, MRGPRX4
Format: cell-based
Set-up: key to IP1 Basal / IP1 accumulation with YM (Figure 1c) / response to agonist, MRGPRX4 / IP1 accumulation: % IP1: unstimulated mock-transfected = 0%, fully stimulated MRGPRX4 = 100%
Conditions: for IP1 accumulation: MRGPRX4 alone, Fig S3d-f
Experimental: HEK293T cells were transfected with 1 pg/cell of MRGPRX4 DNA, and the amount of DNA was kept constant at 2 pg/cell with pcDNA3.1(+) empty vector, unless otherwise specified. Twenty four hours after transfection, IP1 assay was performed as previously described ([51]). When applicable, cells were treated with 1 μM YM254890 (YM) or different concentrations of U73122 for 1 h prior to addition of agonist or buffer. After incubation for 2 h, HTRF reagents and IP1 calibration standards were added and incubated for 2 h in the dark at room temperature. Time-resolved fluorescence signals were read on the BioTek Synergy NEO-TRF Hybrid multi-mode reader (BioTek Instruments). All data were carried out in three independent experiments with three technical replicate each.
For characterization of the Tet-On Nluc-HT7-MRGPRX4-GFP10-1D4 construct, HEK293T cells were transfected as previously described with some modifications. Dox dose-response of NLuc-HT7-MRGPRX4-GFP10-1D4 DNA titration was assayed by transfecting HEK293T cells with either 1 or 2 pg/cell of NLuc-HT7-MRGPRX4-GFP10-1D4 construct. Receptor expression was induced 4 h after transfection with addition of different concentrations of dox for 20 h. For the RAMP DNA titration assay, cells were cotransfected with a constant amount of 1 pg/cell of NLuc-HT7-MRGPRX4-GFP10-1D4 DNA and 1, 0.75, 0.5, or 0 pg/cell of each HA-RAMP-OLLAS with the homogenous transfection method. Four hours after transfection, receptor expression was induced with addition of 1000 ng/ml dox. Twenty hours after induction, IP1 assay was performed.
Data reduction, standard calibration, and transformation of HTRF data were performed as previously described ([51]). Normalized IP1 values were calculated relative to the unstimulated mock-transfected cells (set to 0%) and fully stimulated MRGPRX4 (alone if applicable) (set to 100%).

C[C@H](CCC(=O)O)[C@H]1CC[C@H]2[C@@H]3CC[C@@H]4C[C@H](O)CC[C@]4(C)[C@H]3C[C@H](O)[C@]12C [DCA, deoxycholic acid]
efficacy (Figure 4a bottom, MRGPRX4 alone (reference = 100), individual replicates): 100 | Emax (Figure 4a bottom, MRGPRX4 alone (reference = 100), individual replicates, read-out: efficacy): 100% | response to agonist, MRGPRX4 (Figure 4c-f, agonist 100µM, MRGPRX4 alone (reference = 100)): 100 | normalized IP1 accumulation (HA-MRGX4-1D4, log [agonist] (M) -4): 58.1095 and 47.3107 | normalized IP1 accumulation (HA-MRGX4-1D4, log [agonist] (M) -4.69897): 33.2327 and 34.6328 | normalized IP1 accumulation (HA-MRGX4-1D4, log [agonist] (M) -5.39794): 18.9895 | normalized IP1 accumulation (HA-MRGX4-1D4, log [agonist] (M) -6.09691): 13.2757 and 15.4467 | normalized IP1 accumulation (HA-MRGX4-1D4, log [agonist] (M) -6.79588): 13.3916 and 13.9578 | normalized IP1 accumulation (HA-MRGX4-1D4, log [agonist] (M) -7.49485): 12.579 and 14.4894 | Emax (HEK-293T, MRGPRX4 (Fig. 1A), HEK293T, normalized to 100 μM nateglinide, read-out: IP1 Emax): 77.9% | Emax (HEK-293T, MRGPRX4 (Fig. 1A), HEK293T, normalized to 100 μM nateglinide, read-out: IP1 span): 62.9% | Emax (MRGPRX4 0.125 pg DNA/cell, individual experiments, read-out: efficacy (Figure 1b bottom)): 47.9% | Emax (MRGPRX4 0.25 pg DNA/cell, individual experiments, read-out: efficacy (Figure 1b bottom)): 45% | Emax (MRGPRX4 0.5 pg DNA/cell, individual experiments, read-out: efficacy (Figure 1b bottom)): 58.3% | Emax (MRGPRX4 1 pg DNA/cell, individual experiments, read-out: efficacy (Figure 1b bottom)): 70.6% | Emax (MRGPRX4 2 pg DNA/cell, individual experiments, read-out: efficacy (Figure 1b bottom)): 80.7% | IP1 Basal (MRGPRX4 (Fig. 1A), HEK293T, normalized to 100 μM nateglinide): 15.03 | IP1 Basal (MRGPRX4 DNA 0.25 pg/cell (Fig. S1)): 4.249 | Emax (MRGPRX4 DNA 0.25 pg/cell (Fig. S1), read-out: IP1 Emax): 54.2% | Emax (MRGPRX4 DNA 0.25 pg/cell (Fig. S1), read-out: IP1 span): 50% | IP1 Basal (MRGPRX4 DNA 0.5 pg/cell (Fig. S1)): 6.783 | Emax (MRGPRX4 DNA 0.5 pg/cell (Fig. S1), read-out: IP1 Emax): 68% | Emax (MRGPRX4 DNA 0.5 pg/cell (Fig. S1), read-out: IP1 span): 61.2% | IP1 Basal (MRGPRX4 DNA 1 pg/cell (Fig. S1)): 9.471 | Emax (MRGPRX4 DNA 1 pg/cell (Fig. S1), read-out: IP1 Emax): 73.8% | Emax (MRGPRX4 DNA 1 pg/cell (Fig. S1), read-out: IP1 span): 64.3% | IP1 Basal (MRGPRX4 DNA 2 pg/cell (Fig. S1)): 12.99 | Emax (MRGPRX4 DNA 2 pg/cell (Fig. S1), read-out: IP1 Emax): 87.2% | Emax (MRGPRX4 DNA 2 pg/cell (Fig. S1), read-out: IP1 span): 74.2% | Emax (MRGPRX4 DNA […] (Fig. S1), read-out: IP1 Emax): 50.3% | Emax (MRGPRX4 DNA […] (Fig. S1), read-out: IP1 span): 47% | IP1 accumulation (log [DCA] (M) -4.69897): 57.1868 and 75.4734 | IP1 accumulation (log [DCA] (M) -5.39794): 30.3386 | IP1 accumulation (log [DCA] (M) -6.09691): 23.4514 and 33.1858 | IP1 accumulation (log [DCA] (M) -6.79588): 21.3567 and 30.9234 | IP1 accumulation (log [DCA] (M) -7.49485): 19.4869 and 27.2792 | normalized IP1 accumulation (SP-FLAG-Nluc-HT7-MRGX4_Tet-GFP10-1D4, log [agonist] (M) -4.09691): 41.457 and 40.0931 | normalized IP1 accumulation (SP-FLAG-Nluc-HT7-MRGX4_Tet-GFP10-1D4, log [agonist] (M) -4.79588): 23.5519 and 24.4487 | normalized IP1 accumulation (SP-FLAG-Nluc-HT7-MRGX4_Tet-GFP10-1D4, log [agonist] (M) -5.49485): 12.8144 and 13.3904 | normalized IP1 accumulation (SP-FLAG-Nluc-HT7-MRGX4_Tet-GFP10-1D4, log [agonist] (M) -6.19382): 11.7164 and 10.0407 | normalized IP1 accumulation (SP-FLAG-Nluc-HT7-MRGX4_Tet-GFP10-1D4, log [agonist] (M) -6.89279): 9.829 and 11.4364 | normalized IP1 accumulation (SP-FLAG-Nluc-HT7-MRGX4_Tet-GFP10-1D4, log [agonist] (M) -7.59176): 10.7139 and 10.5391 | normalized IP1 accumulation (SP-FLAG-Nluc-HT7-MRGX4_Tet-GFP10-1D4 no dox, log [agonist] (M) -4.09691): 9.638 and 9.7 | normalized IP1 accumulation (SP-FLAG-Nluc-HT7-MRGX4_Tet-GFP10-1D4 no dox, log [agonist] (M) -4.79588): 7.503 and 8.174 | normalized IP1 accumulation (SP-FLAG-Nluc-HT7-MRGX4_Tet-GFP10-1D4 no dox, log [agonist] (M) -5.49485): 9.457 and 8.365 | normalized IP1 accumulation (SP-FLAG-Nluc-HT7-MRGX4_Tet-GFP10-1D4 no dox, log [agonist] (M) -6.19382): 8.686 and 8.091 | normalized IP1 accumulation (SP-FLAG-Nluc-HT7-MRGX4_Tet-GFP10-1D4 no dox, log [agonist] (M) -6.89279): 8.749 and 8.325 | normalized IP1 accumulation (SP-FLAG-Nluc-HT7-MRGX4_Tet-GFP10-1D4 no dox, log [agonist] (M) -7.59176): 8.705 and 9.2498 | normalized IP1 accumulation (SP-Flag-MRGX4-1D4, log [agonist] (M) -4): 68.6268 and 66.4742 | normalized IP1 accumulation (SP-Flag-MRGX4-1D4, log [agonist] (M) -4.69897): 30.127 and 33.8796 | normalized IP1 accumulation (SP-Flag-MRGX4-1D4, log [agonist] (M) -5.39794): 14.3992 and 13.1143 | normalized IP1 accumulation (SP-Flag-MRGX4-1D4, log [agonist] (M) -6.09691): 8.224 and 9.664 | normalized IP1 accumulation (SP-Flag-MRGX4-1D4, log [agonist] (M) -6.79588): 7.099 and 7.695 | normalized IP1 accumulation (SP-Flag-MRGX4-1D4, log [agonist] (M) -7.49485): 6.315 and 7.555 | normalized IP1 accumulation (SP-Flag-MRGX4-GFP10-1D4, log [agonist] (M) -4): 68.4519 and 65.3389 | normalized IP1 accumulation (SP-Flag-MRGX4-GFP10-1D4, log [agonist] (M) -4.69897): 36.0479 and 38.0394 | normalized IP1 accumulation (SP-Flag-MRGX4-GFP10-1D4, log [agonist] (M) -6.09691): 10.072 and 10.3886 | normalized IP1 accumulation (SP-Flag-MRGX4-GFP10-1D4, log [agonist] (M) -6.79588): 8.9869 and 9.025 | normalized IP1 accumulation (SP-Flag-MRGX4-GFP10-1D4, log [agonist] (M) -7.49485): 7.933 and 9.527 | IP1 Basal (construct FLAG-MRGPRX4-1D4 (Fig. S4A-F)): 7.469 | Emax (construct FLAG-MRGPRX4-1D4 (Fig. S4A-F), read-out: IP1 Emax): 96.3% | Emax (construct FLAG-MRGPRX4-1D4 (Fig. S4A-F), read-out: IP1 span): 88.8% | IP1 Basal (construct FLAG-MRGPRX4-GFP10-1D4 (Fig. S4A-F)): 8.165 | Emax (construct FLAG-MRGPRX4-GFP10-1D4 (Fig. S4A-F), read-out: IP1 Emax): 88.5% | Emax (construct FLAG-MRGPRX4-GFP10-1D4 (Fig. S4A-F), read-out: IP1 span): 80.4% | IP1 Basal (construct FLAG-NLuc-HT7-MRGPRX4-GFP10-1D4 (Fig. S4A-F)): 10.56 | Emax (construct FLAG-NLuc-HT7-MRGPRX4-GFP10-1D4 (Fig. S4A-F), read-out: IP1 Emax): 55% | Emax (construct FLAG-NLuc-HT7-MRGPRX4-GFP10-1D4 (Fig. S4A-F), read-out: IP1 span): 44.5% | IP1 Basal (construct HA-MRGPRX4-1D4 (Fig. S4A-F)): 12.52 | Emax (construct HA-MRGPRX4-1D4 (Fig. S4A-F), read-out: IP1 Emax): 64.7% | Emax (construct HA-MRGPRX4-1D4 (Fig. S4A-F), read-out: IP1 span): 52.2%
